Literature values, collected in patent US8512311B2, “Augmentation of intraluminal microvessel formation to facilitate guide wire crossing in chronic total occlusions” (priority 2004, dated 2013).

System: venous thrombi
Conditions: injection into venous thrombi, rat model, compared to controls

## vascular endothelial growth factor [VEGF protein]
  increase in thrombus recanalization: two-fold
